Results reported in article PMC4721142, “Randomized controlled studies on the efficacy of antiarthritic agents in inhibiting cartilage degeneration and pain associated with progression of osteoarthritis in the rat” (Arthritis Research & Therapy, 2016).
Read-outs that look alike come from different tables or passages of the source.

Assays:
MIA rat model of OA = test: MIA trial 1 histopathology; assay type: in vivo; details: necropsy day 29, n = 3; for Histopathology, cartilage score: 0-5 scale
Protocol: Following functional testing in the first and second MIA trials, femurs were fixed in paraformaldehyde, processed, sectioned, stained with hematoxylin and eosin or Safranin O at Premier Laboratory (Longmont, CO, USA), and analyzed by a veterinary pathologist. For MIA trial 1, sections were evaluated for the percentage area of chondrocyte necrosis and/or proteolytic degeneration using a 5-point scale with 0 = none; 1 being <10 %; 2 = 10–30 %; 3 = 30–60 %; 4 = 60–90 %; and 5 being >90 %. Other characteristics of inflammation, proliferation, and integrity of the synovium, subchondral bone, and articular cartilage were scored as normal, minimal, mild, moderate, marked, or increased or decreased when severity was not graded. MIA trial 2 was measured similarly and then cross-checked according to the methods used for MIA trial 3 (see text below).
The histopathology for the first MIA trial was performed by Premier Laboratories (Dr. Michael Hawes, APS, Pathologist). Treatments were masked during the assessment. Chondrocyte necrosis and proteolytic degeneration of the femurs were scored on a 5 point scale with 0 = None; 1 = <10%; […]
proteoglycan content (safranin O staining), synovial membrane inflammation and proliferation, subchondral bone, and articular cartilage (as indicated in Supplementary methods). Characteristics within these categories were scored as normal, minimal, mild, moderate, marked, or +/- when severity was not graded. […]
Degenerative changes occur by 3-6 weeks post-surgery in the MMT/MCLT model and are of greatest severity on the outer 1/3 of the tibial cartilage. Less severe degenerative changes are observed in the middle and inner 1/3 of the tibial cartilage. Osteophytes progressively increase in size and are ultimately quite large (medial tibia). By 12 months nearly all rats show total cartilage loss. Due to the rapid progression of cartilage degeneration, protective effects of therapeutics are not always apparent in the outer 1/3 of the tibial cartilage, although zonal analysis may reveal effects of treatment in the middle and inner 1/3. Substantial subchondral and epiphyseal bone changes occur in the medial tibia subjacent to the areas of greatest lesion severity. […]
Scores were based on the […]
percentage of area affected within the zone.
Cartilage degeneration in the tibia was scored on a five point scale for each zone, collagen damage across the medial tibial plateau was measured by total width for each grade damage. Cartilage degeneration in the tibia was scored none to severe (numerical values 0-5) for each zone (area defined by micrometer) using the following criteria: […]

[1] = rat, in vivo
Protocol: Using the MMT/MCLT model, a number of the same agents were tested via systemic delivery and
using incapacitance /weight bearing as a measure of pain.

[2] = MIA trial 2 clinical observations; assay type: in vivo, rat; details: tacrolimus i.p. daily

Compound | Histopathology, bone (MIA rat model of OA) | Histopathology, cartilage score (MIA rat model of OA) | Clinical observation [1] | Clinical observation [2]
Clc1cccc(Cl)c1N=C1NCCN1 [Clonidine] | Severe | 4.7 | – | –
CC1(C)O[C@@H]2C[C@H]3[C@@H]4C[C@H](F)C5=CC(=O)C=C[C@]5(C)[C@@]4(F)[C@@H](O)C[C@]3(C)[C@]2(C(=O)CO)O1 [Fluocinolone, Fluocinolone Acetonide] | Minimal | 3.0 | – | –
C=CC[C@@H]1/C=C(\C)C[C@H](C)C[C@H](OC)[C@H]2O[C@@](O)(C(=O)C(=O)N3CCCC[C@H]3C(=O)O[C@H](/C(C)=C/[C@@H]3CC[C@@H](O)[C@H](OC)C3)[C@H](C)[C@@H](O)CC1=O)[C@H](C)C[C@@H]2OC [Tacrolimus] | – | – | blood in the stool | blood in the stool
